± gives the standard deviation of the averaged measurements.
Columns and labels:
[1] = compound: CNC(=O)c1cc(Oc2ccc(NC(=O)Nc3ccc(Cl)c(C(F)(F)F)c3)cc2)ccn1 [SORAFENIB]; test: surviving fraction relative to DMSO-only wells; higher = less growth inhibition; details: exposure time: 5 days
Method in brief: (§1)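 Five days of continuous inhibitor exposure, at 0.5, 1, 5, 10, 50, 100, 500 and 1000 nM, followed a 24-hour period after log-phase tumour cell lines were seeded at 250–500 cells per well in 384-well plates. Surviving fraction was derived from CellTiter-Glo luminescence relative to the median of DMSO-only wells. Plates were read after 10 minutes at room temperature, and lines screened three times were kept only if replicate Pearson r >0.7 and median Z' >0.3.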

[2] = compound: O=C(c1cc(Cc2n[nH]c(=O)c3ccccc23)ccc1F)N1CCN(C(=O)C2CC2)CC1 [OLAPARIB]; test: as above; details: exposure time: 5 days
Method in brief: as §1

SG28 HEADNECK
surviving fraction ([1]; 0.5 nM): 1.17 ± 0.13 | surviving fraction ([1]; 5 nM): 1.18 ± 0.1 | surviving fraction ([1]; 10 nM): 1.22 ± 0.18 | surviving fraction ([1]; 50 nM): 1.21 ± 0.066 | surviving fraction ([1]; 100 nM): 1.27 ± 0.1 | surviving fraction ([1]; 500 nM): 1.44 ± 0.19 | surviving fraction ([1]; 1000 nM): 1.32 ± 0.14 | surviving fraction ([2]; 0.5 nM): 1.12 ± 0.13 | surviving fraction ([2]; 1 nM): 0.982 ± 0.12 | surviving fraction ([2]; 5 nM): 1.02 ± 0.09 | surviving fraction ([2]; 10 nM): 0.952 ± 0.088 | surviving fraction ([2]; 50 nM): 0.914 ± 0.13 | surviving fraction ([2]; 100 nM): 0.887 ± 0.13 | surviving fraction ([2]; 500 nM): 0.928 ± 0.024 | surviving fraction ([2]; 1000 nM): 0.926 ± 0.065

SCC003 HEADNECK
surviving fraction ([1]; 0.5 nM): 0.898 ± 0.11 | surviving fraction ([1]; 1 nM): 1.05 ± 0.12 | surviving fraction ([1]; 50 nM): 1.12 ± 0.18 | surviving fraction ([1]; 100 nM): 1.11 ± 0.081 | surviving fraction ([1]; 500 nM): 1.24 ± 0.097 | surviving fraction ([2]; 0.5 nM): 1.14 ± 0.066 | surviving fraction ([2]; 1 nM): 1.03 ± 0.079 | surviving fraction ([2]; 5 nM): 1.01 ± 0.072 | surviving fraction ([2]; 10 nM): 1.09 ± 0.11 | surviving fraction ([2]; 50 nM): 1.13 ± 0.052 | surviving fraction ([2]; 100 nM): 1 ± 0.046 | surviving fraction ([2]; 500 nM): 0.974 ± 0.12 | surviving fraction ([2]; 1000 nM): 0.881 ± 0.083

SIHA CERVIX
surviving fraction ([1]; 0.5 nM): 1.04 ± 0.085 | surviving fraction ([1]; 1 nM): 1.16 ± 0.11 | surviving fraction ([1]; 5 nM): 1.089 ± 0.01 | surviving fraction ([1]; 10 nM): 1.13 ± 0.077 | surviving fraction ([1]; 100 nM): 1.15 ± 0.043 | surviving fraction ([1]; 500 nM): 1.17 ± 0.16 | surviving fraction ([1]; 1000 nM): 1.17 ± 0.15 | surviving fraction ([2]; 0.5 nM): 0.988 ± 0.022 | surviving fraction ([2]; 1 nM): 1.07 ± 0.13 | surviving fraction ([2]; 5 nM): 1.02 ± 0.073 | surviving fraction ([2]; 10 nM): 1.03 ± 0.044 | surviving fraction ([2]; 50 nM): 0.967 ± 0.053 | surviving fraction ([2]; 100 nM): 1.04 ± 0.061 | surviving fraction ([2]; 500 nM): 0.91 ± 0.067 | surviving fraction ([2]; 1000 nM): 0.886 ± 0.061

SYO1 SYNOVIAL
surviving fraction ([1]; 0.5 nM): 0.9613 ± 0.0017 | surviving fraction ([1]; 1 nM): 1.02 ± 0.023 | surviving fraction ([1]; 5 nM): 1.02 ± 0.045 | surviving fraction ([1]; 10 nM): 0.981 ± 0.017 | surviving fraction ([1]; 50 nM): 0.968 ± 0.025 | surviving fraction ([1]; 100 nM): 0.912 ± 0.033 | surviving fraction ([1]; 1000 nM): 0.679 ± 0.022 | surviving fraction ([2]; 0.5 nM): 0.992 ± 0.055 | surviving fraction ([2]; 1 nM): 0.95 ± 0.053 | surviving fraction ([2]; 5 nM): 0.924 ± 0.045 | surviving fraction ([2]; 10 nM): 0.881 ± 0.06 | surviving fraction ([2]; 50 nM): 0.724 ± 0.025 | surviving fraction ([2]; 100 nM): 0.6731 ± 0.0055 | surviving fraction ([2]; 500 nM): 0.564 ± 0.044 | surviving fraction ([2]; 1000 nM): 0.429 ± 0.027

RDES SOFT TISSUE
surviving fraction ([1]; 0.5 nM): 1.24 ± 0.085 | surviving fraction ([1]; 1 nM): 1.12 ± 0.098 | surviving fraction ([1]; 5 nM): 1.18 ± 0.1 | surviving fraction ([1]; 10 nM): 0.918 ± 0.1 | surviving fraction ([1]; 50 nM): 1.15 ± 0.058 | surviving fraction ([1]; 100 nM): 1.24 ± 0.066 | surviving fraction ([1]; 500 nM): 1.18 ± 0.13 | surviving fraction ([1]; 1000 nM): 1.09 ± 0.1 | surviving fraction ([2]; 0.5 nM): 1.16 ± 0.19 | surviving fraction ([2]; 1 nM): 1.11 ± 0.23 | surviving fraction ([2]; 5 nM): 1.14 ± 0.15 | surviving fraction ([2]; 10 nM): 0.966 ± 0.14 | surviving fraction ([2]; 50 nM): 0.85 ± 0.14 | surviving fraction ([2]; 100 nM): 0.8 ± 0.093 | surviving fraction ([2]; 500 nM): 1.01 ± 0.065 | surviving fraction ([2]; 1000 nM): 1.41 ± 0.088

SG43 HEADNECK
surviving fraction ([1]; 0.5 nM): 0.959 ± 0.085 | surviving fraction ([1]; 1 nM): 1.19 ± 0.13 | surviving fraction ([1]; 10 nM): 0.97 ± 0.082 | surviving fraction ([1]; 50 nM): 1.18 ± 0.14 | surviving fraction ([1]; 100 nM): 1.4 ± 0.095 | surviving fraction ([1]; 500 nM): 1.98 ± 0.15 | surviving fraction ([1]; 1000 nM): 2.18 ± 0.21 | surviving fraction ([2]; 0.5 nM): 1.18 ± 0.24 | surviving fraction ([2]; 1 nM): 0.979 ± 0.16 | surviving fraction ([2]; 5 nM): 0.835 ± 0.043 | surviving fraction ([2]; 10 nM): 0.882 ± 0.095 | surviving fraction ([2]; 50 nM): 1.19 ± 0.025 | surviving fraction ([2]; 100 nM): 1.01 ± 0.059 | surviving fraction ([2]; 500 nM): 0.982 ± 0.11 | surviving fraction ([2]; 1000 nM): 0.935 ± 0.042

MCF7 BREAST
surviving fraction ([1]; 0.5 nM): 0.866 ± 0.025 | surviving fraction ([1]; 1 nM): 0.86 ± 0.068 | surviving fraction ([1]; 5 nM): 0.904 ± 0.021 | surviving fraction ([1]; 10 nM): 0.851 ± 0.022 | surviving fraction ([1]; 50 nM): 0.928 ± 0.047 | surviving fraction ([1]; 100 nM): 0.939 ± 0.034 | surviving fraction ([1]; 500 nM): 0.995 ± 0.074 | surviving fraction ([1]; 1000 nM): 0.873 ± 0.025 | surviving fraction ([2]; 0.5 nM): 0.891 ± 0.015 | surviving fraction ([2]; 1 nM): 0.941 ± 0.014 | surviving fraction ([2]; 5 nM): 0.946 ± 0.085 | surviving fraction ([2]; 10 nM): 0.907 ± 0.037 | surviving fraction ([2]; 50 nM): 0.96 ± 0.039 | surviving fraction ([2]; 100 nM): 0.906 ± 0.051 | surviving fraction ([2]; 500 nM): 0.95 ± 0.026 | surviving fraction ([2]; 1000 nM): 0.943 ± 0.043

HELA CERVIX
surviving fraction ([1]; 0.5 nM): 1.03 ± 0.022 | surviving fraction ([1]; 1 nM): 0.982 ± 0.024 | surviving fraction ([1]; 5 nM): 0.986 ± 0.047 | surviving fraction ([1]; 10 nM): 0.9492 ± 0.0068 | surviving fraction ([1]; 50 nM): 1.1 ± 0.024 | surviving fraction ([1]; 100 nM): 1.09 ± 0.062 | surviving fraction ([1]; 500 nM): 1.07 ± 0.055 | surviving fraction ([2]; 0.5 nM): 1.05 ± 0.064 | surviving fraction ([2]; 1 nM): 1.09 ± 0.025 | surviving fraction ([2]; 5 nM): 1.05 ± 0.031 | surviving fraction ([2]; 10 nM): 1.04 ± 0.036 | surviving fraction ([2]; 50 nM): 1.13 ± 0.03 | surviving fraction ([2]; 100 nM): 1.18 ± 0.092 | surviving fraction ([2]; 500 nM): 1.17 ± 0.014 | surviving fraction ([2]; 1000 nM): 1.19 ± 0.019

VP229 BREAST
surviving fraction ([1]; 0.5 nM): 0.934 ± 0.11 | surviving fraction ([1]; 1 nM): 0.939 ± 0.05 | surviving fraction ([1]; 5 nM): 1.06 ± 0.11 | surviving fraction ([1]; 10 nM): 1 ± 0.11 | surviving fraction ([1]; 50 nM): 1.21 ± 0.088 | surviving fraction ([1]; 100 nM): 1.12 ± 0.17 | surviving fraction ([1]; 500 nM): 1.31 ± 0.13 | surviving fraction ([1]; 1000 nM): 1.3 ± 0.028 | surviving fraction ([2]; 0.5 nM): 1.07 ± 0.11 | surviving fraction ([2]; 1 nM): 1.08 ± 0.13 | surviving fraction ([2]; 5 nM): 1.01 ± 0.021 | surviving fraction ([2]; 10 nM): 1.12 ± 0.19 | surviving fraction ([2]; 50 nM): 0.886 ± 0.071 | surviving fraction ([2]; 100 nM): 0.788 ± 0.068 | surviving fraction ([2]; 500 nM): 0.879 ± 0.12 | surviving fraction ([2]; 1000 nM): 0.821 ± 0.046

143B BONE
surviving fraction ([1]; 1 nM): 1.02 ± 0.018 | surviving fraction ([1]; 10 nM): 1.042 ± 0.0078 | surviving fraction ([1]; 50 nM): 1.03 ± 0.06 | surviving fraction ([1]; 100 nM): 1.02 ± 0.042 | surviving fraction ([1]; 1000 nM): 0.962 ± 0.012 | surviving fraction ([2]; 0.5 nM): 1.025 ± 0.0014 | surviving fraction ([2]; 1 nM): 1.044 ± 0.0092 | surviving fraction ([2]; 5 nM): 1.04 ± 0.019 | surviving fraction ([2]; 10 nM): 1 ± 0.025 | surviving fraction ([2]; 50 nM): 1.05 ± 0.027 | surviving fraction ([2]; 100 nM): 1.01 ± 0.017 | surviving fraction ([2]; 500 nM): 1.02 ± 0.023 | surviving fraction ([2]; 1000 nM): 0.9915 ± 0.005

22RV1 PROSTATE
surviving fraction ([1]; 0.5 nM): 0.995 ± 0.029 | surviving fraction ([1]; 5 nM): 0.974 ± 0.014 | surviving fraction ([1]; 10 nM): 0.955 ± 0.025 | surviving fraction ([1]; 50 nM): 1.09 ± 0.034 | surviving fraction ([1]; 100 nM): 1.09 ± 0.064 | surviving fraction ([1]; 500 nM): 1.11 ± 0.043 | surviving fraction ([2]; 0.5 nM): 1.08 ± 0.029 | surviving fraction ([2]; 1 nM): 1.04 ± 0.044 | surviving fraction ([2]; 5 nM): 1.05 ± 0.036 | surviving fraction ([2]; 10 nM): 1.01 ± 0.09 | surviving fraction ([2]; 50 nM): 1.06 ± 0.031 | surviving fraction ([2]; 100 nM): 1 ± 0.05 | surviving fraction ([2]; 500 nM): 1.04 ± 0.049 | surviving fraction ([2]; 1000 nM): 0.997 ± 0.051
